# Patent US20140093884A1, “Process for Identifying Novel Anti-Inflammatory Molecules with Reduced Direct Transrepression of Genes Induced by Glucocorticoids” (UNIVERSITE DE STRASBOURG, priority 2011, published 2014)
# System: TSLP
# Test: TSLP transcript levels in mouse ear epidermis after topical treatment (Q-RT-PCR)
# Type: in vivo
# Description: Mice. […] Real time PCR. Total RNA was reverse transcribed using hexamers, followed by Q-PCR, as reported (Li et al., 2005). The GC agonist fluocinolone acetonide (FA) was applied to ears of mice concomitantly treated with the “low-calcemic” Vitamin D3 (VitD3) analog MC903 (Calcipotriol; hereafter called MC) to trigger TSLP expression (Li et al., 2006). […] As expected, the expression of the GC-inducible GPX3 (glutathione peroxidase 3) gene which harbours a (+)GRE (Tuckermann et al., 1999) was enhanced by FA (FIG. 10) and inhibited by RU co-treatment, while FA or RU had no effect on MC-dependent expression of the CYP24A1 gene (a VitD3 target) (FIG. 10). […] Although the basal TSLP level was similar in vehicle-treated WT and GR^ep−/− mice, FA blocked MC-induced TSLP expression in WT, but not in GR^ep−/− mice (not shown).
smiles,measurement,setting,value
"C=C1/C(=C\C=C2/CCC[C@]3(C)[C@@H]([C@H](C)/C=C/[C@@H](O)C4CC4)CC[C@@H]23)C[C@@H](O)C[C@@H]1O [MC903, Calcipotriol]",MC-induced TSLP expression in GRep-/- compared with WT mice,GRep-/- vs WT mice,more efficient
same,TSLP RNA level,"WT mice, ears, topical MC903",increase
